Reference: US20100292231A1, “Indazole Compounds for Treating Inflammatory Disorders, Demyelinating Disorders and Cancers” (priority 2007, published 2010)
Like-named read-outs stand apart in the source and are kept apart here.

Experiments:
Experiment in all cases: SelectScreen kinase specificity survey
Type in all cases: biochemical
[1] = biological target: T1, ABL1 E255K (Homo sapiens, UniProt P00519, E255K); conditions: estimated, abridged dose response curve, read-out: Kinase inhibitory activity EC50
T1 construct: purchased Invitrogen (SelectScreen platform)
How it was run: (§1)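 Curves built from five inhibitor increments were fitted by four-parameter Hill regression to estimate EC50. Each kinase reaction used a dedicated substrate with optical detection and 100 micromolar ATP, referenced to uninhibited control phosphorylation.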

[2] = biological target: T2, ABL1 Y253F (Homo sapiens, UniProt P00519, Y253F); conditions: estimated, abridged dose response curve, read-out: Kinase inhibitory activity EC50
T2 construct: purchased Invitrogen (SelectScreen platform)
How it was run: as §1

[3] = biological target: T3, AURKC (Aurora C) (Homo sapiens, UniProt Q9UQB9); conditions: estimated, abridged dose response curve, read-out: Kinase inhibitory activity EC50
T3 construct: purchased Invitrogen, Inc. (SelectScreen service)
How it was run: as §1

[4] = biological target: T4, BRAF V599E (Homo sapiens, UniProt P15056, V600E); conditions: estimated, abridged dose response curve, read-out: Kinase inhibitory activity EC50
T4 construct: purchased Invitrogen, Inc. (SelectScreen platform)
How it was run: as §1

[5] = biological target: T5, CLK3 (Homo sapiens, UniProt P49761); conditions: estimated, abridged dose response curve, read-out: Kinase inhibitory activity EC50
T5 construct: purchased Invitrogen (SelectScreen platform)
How it was run: as §1

[6] = biological target: T6, DYRK3 (Homo sapiens, UniProt O43781); conditions: estimated, abridged dose response curve, read-out: Kinase inhibitory activity EC50
T6 construct: purchased Invitrogen (SelectScreen platform)
T6 sequence (O43781 whole entry): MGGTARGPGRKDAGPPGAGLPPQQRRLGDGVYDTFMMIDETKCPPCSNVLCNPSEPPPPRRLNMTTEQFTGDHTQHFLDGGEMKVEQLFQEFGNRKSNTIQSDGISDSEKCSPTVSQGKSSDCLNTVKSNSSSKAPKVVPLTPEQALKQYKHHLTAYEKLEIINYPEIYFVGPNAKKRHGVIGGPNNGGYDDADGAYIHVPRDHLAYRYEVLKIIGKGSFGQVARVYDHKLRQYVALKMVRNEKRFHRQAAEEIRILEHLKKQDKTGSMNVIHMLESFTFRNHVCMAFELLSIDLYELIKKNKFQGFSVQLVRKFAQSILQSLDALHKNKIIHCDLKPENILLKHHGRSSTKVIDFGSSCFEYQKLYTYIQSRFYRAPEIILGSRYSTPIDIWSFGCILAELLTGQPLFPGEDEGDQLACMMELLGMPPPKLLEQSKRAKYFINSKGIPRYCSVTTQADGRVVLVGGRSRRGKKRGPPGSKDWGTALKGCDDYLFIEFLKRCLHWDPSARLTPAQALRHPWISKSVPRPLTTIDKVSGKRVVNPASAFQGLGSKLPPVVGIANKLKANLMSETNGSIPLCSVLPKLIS
How it was run: as §1

[7] = biological target: T7, EGFR (ErbB1) (Homo sapiens, UniProt P00533); conditions: estimated, abridged dose response curve, read-out: Kinase inhibitory activity EC50
T7 construct: purchased Invitrogen (SelectScreen service)
How it was run: as §1

[8] = biological target: T8, ERBB2 (HER2) (Homo sapiens, UniProt P04626); conditions: estimated, abridged dose response curve, read-out: Kinase inhibitory activity EC50
T8 construct: purchased Invitrogen (SelectScreen service)
T8 sequence (P04626 23-1255): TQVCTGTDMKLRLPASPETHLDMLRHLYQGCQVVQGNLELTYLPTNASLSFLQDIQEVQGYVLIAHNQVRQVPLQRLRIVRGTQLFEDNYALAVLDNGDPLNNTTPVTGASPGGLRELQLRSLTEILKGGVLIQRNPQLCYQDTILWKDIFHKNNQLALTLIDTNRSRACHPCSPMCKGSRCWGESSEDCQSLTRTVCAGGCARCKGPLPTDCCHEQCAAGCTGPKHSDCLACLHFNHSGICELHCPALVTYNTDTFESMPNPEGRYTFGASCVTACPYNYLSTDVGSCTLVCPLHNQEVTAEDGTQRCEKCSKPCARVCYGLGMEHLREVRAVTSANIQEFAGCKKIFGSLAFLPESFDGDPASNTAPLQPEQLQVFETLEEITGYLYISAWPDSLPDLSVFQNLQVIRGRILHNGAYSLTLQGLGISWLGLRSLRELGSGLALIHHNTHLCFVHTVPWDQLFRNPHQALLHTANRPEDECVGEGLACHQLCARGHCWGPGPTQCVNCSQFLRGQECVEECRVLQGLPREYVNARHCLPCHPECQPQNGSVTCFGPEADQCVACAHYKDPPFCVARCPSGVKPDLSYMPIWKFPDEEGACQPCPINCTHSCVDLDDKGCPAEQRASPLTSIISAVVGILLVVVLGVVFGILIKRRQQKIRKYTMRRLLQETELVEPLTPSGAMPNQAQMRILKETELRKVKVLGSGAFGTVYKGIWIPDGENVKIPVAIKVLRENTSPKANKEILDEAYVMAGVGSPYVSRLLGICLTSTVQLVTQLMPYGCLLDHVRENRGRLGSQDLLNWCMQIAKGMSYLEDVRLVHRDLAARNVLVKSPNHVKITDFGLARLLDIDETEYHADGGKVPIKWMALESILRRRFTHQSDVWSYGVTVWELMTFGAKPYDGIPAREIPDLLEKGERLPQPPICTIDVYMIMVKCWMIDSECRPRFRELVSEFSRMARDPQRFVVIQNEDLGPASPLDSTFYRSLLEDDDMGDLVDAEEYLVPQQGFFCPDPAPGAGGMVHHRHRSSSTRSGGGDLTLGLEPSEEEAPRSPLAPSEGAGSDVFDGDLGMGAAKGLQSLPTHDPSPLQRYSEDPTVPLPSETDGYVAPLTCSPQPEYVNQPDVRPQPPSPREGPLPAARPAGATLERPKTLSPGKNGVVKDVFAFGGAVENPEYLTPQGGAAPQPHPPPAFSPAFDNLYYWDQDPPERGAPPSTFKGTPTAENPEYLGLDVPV
How it was run: as §1

[9] = biological target: T9, GRK7 (Homo sapiens, UniProt Q8WTQ7)
T9 construct: purchased Invitrogen (SelectScreen platform)
T9 sequence (Q8WTQ7 whole entry): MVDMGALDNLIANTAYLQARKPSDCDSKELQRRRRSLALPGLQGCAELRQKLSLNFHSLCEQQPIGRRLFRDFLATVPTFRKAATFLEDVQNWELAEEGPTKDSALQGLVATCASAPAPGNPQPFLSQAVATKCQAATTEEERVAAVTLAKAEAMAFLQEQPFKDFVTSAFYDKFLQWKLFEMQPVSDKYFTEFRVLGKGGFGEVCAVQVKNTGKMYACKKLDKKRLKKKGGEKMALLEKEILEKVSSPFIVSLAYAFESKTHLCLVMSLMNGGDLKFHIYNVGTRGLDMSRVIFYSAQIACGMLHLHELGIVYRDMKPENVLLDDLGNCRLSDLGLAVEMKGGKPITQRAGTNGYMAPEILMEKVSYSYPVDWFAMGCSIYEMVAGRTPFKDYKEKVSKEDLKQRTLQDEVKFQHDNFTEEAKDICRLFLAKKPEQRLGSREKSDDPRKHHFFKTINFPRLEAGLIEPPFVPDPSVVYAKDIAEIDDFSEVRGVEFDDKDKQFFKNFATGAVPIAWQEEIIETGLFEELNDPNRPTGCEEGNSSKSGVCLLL
How it was run: as §1

[10] = biological target: T10, HIPK4 (Homo sapiens, UniProt Q8NE63); conditions: estimated, abridged dose response curve, read-out: Kinase inhibitory activity EC50
T10 construct: purchased Invitrogen (SelectScreen platform)
How it was run: as §1

[11] = biological target: T11, JAK2 (Homo sapiens, UniProt O60674); conditions: estimated, abridged dose response curve, read-out: Kinase inhibitory activity EC50
T11 construct: purchased Invitrogen (SelectScreen platform)
How it was run: as §1

[12] = biological target: T12, JAK3 (Homo sapiens, UniProt P52333); conditions: estimated, abridged dose response curve, read-out: Kinase inhibitory activity EC50
T12 construct: purchased Invitrogen (SelectScreen platform)
T12 sequence (P52333 whole entry): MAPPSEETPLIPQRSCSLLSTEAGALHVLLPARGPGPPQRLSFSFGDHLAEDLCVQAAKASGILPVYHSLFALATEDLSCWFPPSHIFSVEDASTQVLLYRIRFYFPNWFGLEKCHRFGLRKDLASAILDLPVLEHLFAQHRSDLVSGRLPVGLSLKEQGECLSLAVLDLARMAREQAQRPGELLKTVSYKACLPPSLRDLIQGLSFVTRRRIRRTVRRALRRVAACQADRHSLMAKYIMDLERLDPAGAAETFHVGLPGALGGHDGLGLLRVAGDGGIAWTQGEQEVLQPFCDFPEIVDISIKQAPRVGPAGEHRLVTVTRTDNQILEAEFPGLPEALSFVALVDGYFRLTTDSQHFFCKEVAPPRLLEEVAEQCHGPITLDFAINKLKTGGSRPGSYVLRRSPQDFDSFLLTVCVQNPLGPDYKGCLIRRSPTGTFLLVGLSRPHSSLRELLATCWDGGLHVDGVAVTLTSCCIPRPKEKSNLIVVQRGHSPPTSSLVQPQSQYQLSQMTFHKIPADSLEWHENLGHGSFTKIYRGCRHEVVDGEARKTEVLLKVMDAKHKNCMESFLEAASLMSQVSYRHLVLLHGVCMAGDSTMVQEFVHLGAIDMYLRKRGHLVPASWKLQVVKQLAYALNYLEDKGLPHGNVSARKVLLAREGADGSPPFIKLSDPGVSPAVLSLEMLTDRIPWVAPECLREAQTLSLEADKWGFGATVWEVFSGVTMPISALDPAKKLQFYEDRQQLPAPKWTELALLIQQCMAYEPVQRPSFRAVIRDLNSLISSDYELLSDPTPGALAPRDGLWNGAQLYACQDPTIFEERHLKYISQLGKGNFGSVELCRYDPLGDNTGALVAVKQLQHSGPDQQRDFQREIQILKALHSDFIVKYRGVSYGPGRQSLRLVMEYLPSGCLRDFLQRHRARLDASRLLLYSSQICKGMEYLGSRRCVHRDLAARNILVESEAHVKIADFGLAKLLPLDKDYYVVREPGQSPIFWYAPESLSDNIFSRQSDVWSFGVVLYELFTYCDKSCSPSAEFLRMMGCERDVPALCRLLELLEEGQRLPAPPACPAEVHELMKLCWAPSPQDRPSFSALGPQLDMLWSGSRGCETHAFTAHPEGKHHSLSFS
How it was run: as §1

[13] = biological target: T13, KDR (VEGFR2) (Homo sapiens, UniProt P35968); conditions: estimated, abridged dose response curve, read-out: Kinase inhibitory activity EC50
T13 construct: purchased Invitrogen, Inc. (SelectScreen platform)
How it was run: as §1

[14] = biological target: T14, LYN B (Homo sapiens, UniProt P07948); conditions: estimated, abridged dose response curve, read-out: Kinase inhibitory activity EC50
T14 construct: purchased Invitrogen (SelectScreen)
How it was run: as §1

[15] = biological target: T15, MAPK12 (p38 gamma) (Homo sapiens, UniProt P53778); conditions: estimated, abridged dose response curve, read-out: Kinase inhibitory activity EC50
T15 construct: purchased Invitrogen (SelectScreen platform)
How it was run: as §1

[16] = biological target: T16, MATK (HYL, CTK) (Homo sapiens, UniProt P42679); conditions: estimated, abridged dose response curve, read-out: Kinase inhibitory activity EC50
T16 construct: purchased Invitrogen (SelectScreen service)
How it was run: as §1

[17] = biological target: T17, MET (cMet) (Homo sapiens, UniProt P08581); conditions: estimated, abridged dose response curve, read-out: Kinase inhibitory activity EC50
T17 construct: purchased Invitrogen (SelectScreen platform)
How it was run: as §1

[18] = biological target: T18, MYLK2 (skMLCK) (Homo sapiens, UniProt Q9H1R3); conditions: estimated, abridged dose response curve; for EC50: read-out: Kinase inhibitory activity EC50
T18 construct: purchased Invitrogen, Inc. (SelectScreen platform)
How it was run: as §1

[19] = biological target: T19, NTRK2 (TRKB) (Homo sapiens, UniProt Q16620)
T19 construct: purchased Invitrogen (SelectScreen)
How it was run: as §1

[20] = biological target: T20, PHKG2 (Homo sapiens, UniProt P15735); conditions: estimated, abridged dose response curve, read-out: Kinase inhibitory activity EC50
T20 construct: purchased Invitrogen, Inc. (SelectScreen platform)
How it was run: as §1

[21] = biological target: T21, PTK2B (FAK2, PYK2) (Homo sapiens, UniProt Q14289); conditions: estimated, abridged dose response curve, read-out: Kinase inhibitory activity EC50
T21 construct: purchased Invitrogen (SelectScreen service)
T21 sequence (Q14289 whole entry): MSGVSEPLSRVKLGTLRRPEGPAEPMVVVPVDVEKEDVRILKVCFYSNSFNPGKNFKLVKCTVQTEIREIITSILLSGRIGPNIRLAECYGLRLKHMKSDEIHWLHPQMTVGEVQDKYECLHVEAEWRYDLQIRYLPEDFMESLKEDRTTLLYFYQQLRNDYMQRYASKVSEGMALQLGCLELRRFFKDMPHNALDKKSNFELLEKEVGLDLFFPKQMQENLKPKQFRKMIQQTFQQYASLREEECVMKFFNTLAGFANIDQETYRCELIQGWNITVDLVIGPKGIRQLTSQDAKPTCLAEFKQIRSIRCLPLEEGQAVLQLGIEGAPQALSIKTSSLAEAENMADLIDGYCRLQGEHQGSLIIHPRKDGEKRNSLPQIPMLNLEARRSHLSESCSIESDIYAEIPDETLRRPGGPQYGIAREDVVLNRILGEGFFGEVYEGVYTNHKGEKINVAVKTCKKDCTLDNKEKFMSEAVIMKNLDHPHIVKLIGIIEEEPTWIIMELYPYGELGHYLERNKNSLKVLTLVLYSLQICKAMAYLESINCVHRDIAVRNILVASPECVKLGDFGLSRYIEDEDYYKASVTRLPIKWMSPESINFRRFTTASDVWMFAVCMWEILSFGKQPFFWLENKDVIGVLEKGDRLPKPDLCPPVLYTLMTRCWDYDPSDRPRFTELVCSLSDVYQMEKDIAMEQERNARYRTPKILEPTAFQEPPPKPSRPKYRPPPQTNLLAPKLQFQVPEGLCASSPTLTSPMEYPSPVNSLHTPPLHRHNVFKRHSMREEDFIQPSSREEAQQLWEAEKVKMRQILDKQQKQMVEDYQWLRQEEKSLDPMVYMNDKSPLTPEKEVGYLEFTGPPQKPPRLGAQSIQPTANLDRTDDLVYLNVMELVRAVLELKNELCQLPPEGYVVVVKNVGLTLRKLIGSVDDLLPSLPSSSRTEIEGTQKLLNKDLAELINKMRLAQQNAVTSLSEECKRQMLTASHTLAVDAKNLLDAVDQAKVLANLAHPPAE
How it was run: as §1

[22] = biological target: T22, RPS6KA1 (RSK1) (Homo sapiens, UniProt Q15418); conditions: estimated, abridged dose response curve, read-out: Kinase inhibitory activity EC50
T22 construct: purchased Invitrogen, Inc. (SelectScreen platform)
How it was run: as §1

[23] = biological target: T23, SGK (SGK1) (Homo sapiens, UniProt O00141); conditions: estimated, abridged dose response curve, read-out: Kinase inhibitory activity EC50
T23 construct: purchased Invitrogen, Inc. (SelectScreen platform)
T23 sequence (O00141 whole entry): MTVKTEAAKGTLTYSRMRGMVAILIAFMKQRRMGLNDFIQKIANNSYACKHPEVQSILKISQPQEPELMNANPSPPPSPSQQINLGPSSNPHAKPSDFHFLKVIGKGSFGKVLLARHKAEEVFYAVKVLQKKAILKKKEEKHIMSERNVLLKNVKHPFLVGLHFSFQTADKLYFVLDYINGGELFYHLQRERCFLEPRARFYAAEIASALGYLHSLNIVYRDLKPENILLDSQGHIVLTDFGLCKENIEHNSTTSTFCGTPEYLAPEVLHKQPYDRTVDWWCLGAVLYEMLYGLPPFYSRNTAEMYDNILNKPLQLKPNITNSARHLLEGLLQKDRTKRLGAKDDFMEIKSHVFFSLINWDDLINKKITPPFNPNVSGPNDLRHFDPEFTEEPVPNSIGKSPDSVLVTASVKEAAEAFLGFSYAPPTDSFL
How it was run: as §1

[24] = biological target: T24, SRC (Homo sapiens, UniProt P12931); conditions: estimated, abridged dose response curve, read-out: Kinase inhibitory activity EC50
T24 construct: purchased Invitrogen (SelectScreen)
How it was run: as §1

[25] = biological target: T25, STK22B (TSSK2) (Homo sapiens, UniProt Q96PF2); conditions: estimated, abridged dose response curve, read-out: Kinase inhibitory activity EC50
T25 construct: purchased Invitrogen, Inc. (SelectScreen platform)
How it was run: as §1

[26] = biological target: T26, STK23 (MSSK1) (Homo sapiens, UniProt Q9UPE1); conditions: estimated, abridged dose response curve, read-out: Kinase inhibitory activity EC50
T26 construct: purchased Invitrogen, Inc. (SelectScreen service)
How it was run: as §1

Structure (SMILES) | EC50 [1] [µM] | EC50 [2] [µM] | EC50 [3] [µM] | EC50 [4] [µM] | EC50 [5] [µM] | EC50 [6] [µM] | EC50 [7] [µM] | EC50 [8] [µM] | EC50 [10] [µM] | EC50 [11] [µM] | EC50 [12] [µM] | EC50 [13] [µM] | EC50 [14] [µM] | EC50 [15] [µM] | EC50 [16] [µM] | EC50 [17] [µM] | EC50 [18] [µM] | EC50 [20] [µM] | EC50 [21] [µM] | EC50 [22] [µM] | other results
CN(C)CCCNc1ccc2ncn3c4ccc5[nH]ncc5c4c(=O)c1c23 [Compound (IV)] | 3.72 | 2.52 | > 5 | 1.17 | > 5 | 0.38 | > 5 | > 5 | 1.31 | > 5 | > 5 | 0.83 | 0.426 | > 5 | > 5 | > 5 | 0.015 | 3.72 | > 5 | 1.74 | EC50 ([9]; GRK7, estimated, abridged dose response curve, read-out: Kinase inhibitory activity EC50): > 5 µM; Kinase inhibitory activity EC50 [18]: low nM; EC50 ([19]; NTRK2 (TRKB), estimated, abridged dose response curve, read-out: Kinase inhibitory activity EC50): 0.78 µM; EC50 [23]: 3.45 µM; EC50 [24]: 0.437 µM; EC50 [25]: > 5 µM; EC50 [26]: > 5 µM
CCN(CC)CCNc1ccc2ncn3c4ccc(O)cc4c(=O)c1c23 [Symadex, 5-(2-(diethylamino)ethylamino)-8-hydroxy-6H-imidazo[4,5,1-de]acridin-6-one, reference compound] | > 5 | 4.49 | > 5 | 3.4 | > 5 | 0.611 | > 5 | > 5 | 1.82 | > 5 | > 5 | 1.6 | 0.812 | > 5 | > 5 | > 5 | 0.041 | > 5 | > 5 | 2.07 | EC50 [9]: > 5 µM; EC50 [19]: > 5 µM; EC50 [23]: 2.71 µM; EC50 [24]: 4.41 µM; EC50 [25]: > 5 µM; EC50 [26]: > 5 µM
